According to ChEMBL document CHEMBL4219182, “One-pot, multicomponent synthesis of 2,3-disubstituted quinazolin-ones with potent and selective activity against Toxoplasma gondii” (Bioorg Med Chem Lett, 2018):
Calls of active or inactive are those of the source. No cut-off for these calls is given here.

Assays:
[1] = Therapeutic index, ratio of TD50 for HFF to IC50 for tachyzoite stage of Toxoplasma gondii expressing beta-gal infected in HFF; assay type: toxicity; conditions: human; read-out: TI
Toxoplasma gondii [2] = assay: Antiparasitic activity against tachyzoite stage of Toxoplasma gondii infected in HFF assessed as inhibition of parasite replication by measuring increase in parasitophorous vacuoles containing 1 tachyzoites at 10 uM after 24 hrs by microscopic analysis; assay type: functional, organism-based
[3] = Cytotoxicity against HFF by CellTiter96 AQueous one solution cell proliferation assay; assay type: cell-based; conditions: human, HFF cells; read-out: TD50 (the source's name)
Toxoplasma gondii [4] = assay: Antiparasitic activity against tachyzoite stage of Toxoplasma gondii infected in HFF assessed as inhibition of parasite replication by measuring parasitophorous vacuoles containing 1 or 2 tachyzoites at 10 uM after 24 hrs by microscopic analysis; assay type: functional
Toxoplasma gondii [5] = assay: Antiparasitic activity against tachyzoite stage of Toxoplasma gondii infected in HFF assessed as reduction in parasite invasion at 10 uM pretreated with parasite for 20 mins followed by infection in HFF measured by immunofluorescence staining based assay; assay type: functional, organism-based
Toxoplasma gondii [6] = assay: Antiparasitic activity against tachyzoite stage of Toxoplasma gondii expressing beta-gal infected in HFF after 4 days by […] based assay; assay type: functional, organism-based; conditions: 96 h
Toxoplasma gondii [7] = assay: Antiparasitic activity against tachyzoite stage of Toxoplasma gondii infected in HFF assessed as reduction in parasite attachment to host cell at 10 uM pretreated with parasite for 20 mins followed by infection in HFF measured by immunofluorescence staining based assay; assay type: functional, organism-based
Toxoplasma gondii [8] = assay: Antiparasitic activity against tachyzoite stage of Toxoplasma gondii infected in HFF assessed as inhibition of parasite replication by measuring parasitophorous vacuoles containing 1, 2, 4 and 8 tachyzoites at 10 uM after 24 hrs by microscopic analysis; assay type: functional, organism-based

| Compound | selectivity ratio [1] | inhibition (Toxoplasma gondii [2]) | CC50 [3] | inhibition at 10 µM (Toxoplasma gondii [4]) | Activity (Toxoplasma gondii [5]) | IC50 (Toxoplasma gondii [6]) | IC90 (Toxoplasma gondii [6]) | Activity (Toxoplasma gondii [7]) | inhibition (Toxoplasma gondii [8]) |
| --- | --- | --- | --- | --- | --- | --- | --- | --- | --- |
| O=c1c2ccccc2nc(-c2ccc(OCc3ccccc3)cc2)n1-c1ccc(Br)cc1 | 2 | Active | 5 µM | > 75% | Active | 3 µM | 12 µM | – | – |
| O=c1c2ccccc2nc(-c2ccc(Br)cc2)n1-c1ccc(Br)cc1 | 7 | – | ≥ 320 µM | – | – | 44 µM | 126 µM | – | – |
| CC(C)=CCCC(C)=CCn1c(-c2ccc(OCc3ccccc3)cc2)nc2ccccc2c1=O | 46 | – | ≥ 320 µM | > 70% | inactive | 7 µM | 58 µM | inactive | – |
| CN(C)c1ccc(-c2nc3ccccc3c(=O)n2CCc2ccc(O)cc2)cc1 | 2 | – | 196 µM | – | – | 112 µM | 353 µM | – | – |
| O=c1c2ccccc2nc(-c2ccc(OCc3ccccc3)cc2)n1Cc1ccccc1 | 25 | – | ≥ 320 µM | > 70% | inactive | 13 µM | 71 µM | inactive | – |
| COc1ccc(-c2nc3ccccc3c(=O)n2-c2ccc(Br)cc2)cc1 | 6 | – | 196 µM | – | – | 31 µM | 83 µM | – | – |
| CN(C)c1ccc(-c2nc3ccccc3c(=O)n2C2CCCCC2)cc1 | 7 | – | 112 µM | – | – | 15 µM | 67 µM | – | – |
| CC(C)CCn1c(-c2ccc(OCc3ccccc3)cc2)nc2ccccc2c1=O | 10 | – | 118 µM | – | – | 12 µM | 55 µM | – | – |
| CCCCCCCCCCn1c(-c2ccc(N(C)C)cc2)nc2ccccc2c1=O | 7 | – | ≥ 320 µM | – | – | 49 µM | 170 µM | – | – |
| O=c1c2ccccc2nc(-c2ccc(OCc3ccccc3)cc2)n1CCc1cc2ccccc2[nH]1 | 2 | – | ≥ 320 µM | – | – | 154 µM | 724 µM | – | – |
| COc1ccc(-n2c(-c3ccc(OCc4ccccc4)cc3)nc3ccccc3c2=O)cc1 | 1 | – | 4 µM | – | Active | 4 µM | 14 µM | Active | – |
| CCCCCCn1c(-c2ccc(Br)cc2)nc2ccccc2c1=O | 1 | Active | 88 µM | – | Active | 60 µM | 193 µM | Active | – |
| CC(C)CCn1c(-c2ccc(N(C)C)cc2)nc2ccccc2c1=O | 2 | – | 85 µM | – | – | 35 µM | 116 µM | – | – |
| CCCCCCn1c(-c2ccc(N(C)C)cc2)nc2ccccc2c1=O | 3 | – | 50 µM | – | – | 18 µM | 52 µM | – | – |
| Oc1nc(-c2ccc(F)cc2)nc2ccccc12 | 11 | – | ≥ 320 µM | – | – | 29 µM | 260 µM | – | – |
| Oc1nc(-c2cccnc2)nc2ccccc12 | 3 | – | ≥ 320 µM | – | – | 94 µM | 225 µM | – | – |
| O=c1c2ccccc2nc(-c2ccc(OCc3ccccc3)cc2)n1C1CCCCC1 | 53 | – | ≥ 320 µM | > 70% | inactive | 6 µM | 46 µM | inactive | – |

| Compound | selectivity ratio [1] | inhibition (Toxoplasma gondii [2]) | CC50 [3] | inhibition at 10 µM (Toxoplasma gondii [4]) | Activity (Toxoplasma gondii [5]) | IC50 (Toxoplasma gondii [6]) | IC90 (Toxoplasma gondii [6]) | Activity (Toxoplasma gondii [7]) | inhibition (Toxoplasma gondii [8]) |
| --- | --- | --- | --- | --- | --- | --- | --- | --- | --- |
| C[C@@H]1CC[C@H]2[C@@H](C)C(=O)O[C@@H]3O[C@@]4(C)CC[C@@H]1[C@]32OO4 [ARTEMISININ] | 160 | – | ≥ 320 µM | – | – | 2 µM | 19 µM | – | – |
| O=c1[nH]c(-c2ccc(OC(F)(F)F)cc2)nc2ccccc12 | 12 | – | ≥ 320 µM | – | – | 27 µM | 447 µM | – | – |
| COc1ccc(-c2nc3ccccc3c(=O)[nH]2)cc1 | 6 | – | 125 µM | – | – | 20 µM | 121 µM | – | – |
| COc1ccccc1-c1nc(O)c2ccccc2n1 | 5 | – | 305 µM | – | – | 56 µM | 266 µM | – | – |
| CN(C)c1ccc(-c2nc3ccccc3c(=O)n2Cc2ccccc2)cc1 | 11 | – | 133 µM | – | – | 12 µM | 60 µM | – | – |
| COc1ccc(-n2c(-c3ccc(Br)cc3)nc3ccccc3c2=O)cc1 | 10 | – | ≥ 320 µM | – | – | 32 µM | 81 µM | – | – |
| O=C1C(O)=C([C@H]2CC[C@H](c3ccc(Cl)cc3)CC2)C(=O)c2ccccc21 [ATOVAQUONE] | 111 | – | 21 µM | – | – | 0.2 µM | 0.6 µM | – | – |
| O=c1c2ccccc2nc(-c2ccc(OCc3ccccc3)cc2)n1CCc1ccc(O)cc1 | 13 | – | 229 µM | – | – | 17 µM | 52 µM | – | – |
| CCCCCCn1c(-c2ccc(OCc3ccccc3)cc2)nc2ccccc2c1=O | 18 | – | 178 µM | – | Active | 10 µM | 45 µM | Active | inactive |
| CCCCCCCCCCn1c(-c2ccc(OCc3ccccc3)cc2)nc2ccccc2c1=O | 13 | – | ≥ 320 µM | – | – | 25 µM | 119 µM | – | – |
| O=c1[nH]c(-c2ccc(Br)cc2)nc2ccccc12 | 3 | Active | ≥ 320 µM | – | Active | 92 µM | 414 µM | Active | – |
| COc1ccc(-n2c(-c3ccc4c(c3)OCO4)nc3ccccc3c2=O)cc1 | 8 | – | ≥ 320 µM | – | – | 40 µM | 91 µM | – | – |
| O=c1[nH]c(-c2ccc3c(c2)OCO3)nc2ccccc12 | 6 | – | ≥ 320 µM | – | – | 50 µM | 443 µM | – | – |
| O=c1[nH]c(-c2ccc(OCc3ccccc3)cc2)nc2ccccc12 | 2 | – | ≥ 320 µM | – | – | 153 µM | 4990 µM | – | – |
| CN(C)c1ccc(-c2nc(O)c3ccccc3n2)cc1 | 23 | – | ≥ 320 µM | – | Active | 14 µM | 281 µM | Active | inactive |
| CCCCCCn1c(-c2ccc(OC)cc2)nc2ccccc2c1=O | 4 | – | 42 µM | – | – | 10 µM | 48 µM | – | – |
